What was measured:
[1] = biological target: T1, SMYD3 (Homo sapiens (Human), UniProt Q9H7B4); assay: SMYD3 biochemical assay (SPA, 3H-SAM methylation of MEKK2 protein substrate); settings: read-out: SMYD3 Biochem IC50
How it was run: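 SPA methyltransferase format: tag-cleaved human SMYD3, insect-cell GST-MEKK2 protein substrate, 3H-SAM donor, 30 min RT enzyme–compound preincubation, 100 uM cold SAM quench.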

[2] = biological target: T1, SMYD3; assay: SMYD3 cell assay (Trimethyl-MEKK2 In-Cell Western in 293T/17 cells); format: cell-based; settings: read-out: SMYD3 Cell IC50
How it was run: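 In-Cell Western readout: methanol-fixed cells stained for trimethyl-MEKK2 and flag tag, ratio per well normalized to DMSO and background controls.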

[3] = Table 1A, IC50 values are an average of n = 1 to n = 50

T1 sequence (Q9H7B4 whole entry): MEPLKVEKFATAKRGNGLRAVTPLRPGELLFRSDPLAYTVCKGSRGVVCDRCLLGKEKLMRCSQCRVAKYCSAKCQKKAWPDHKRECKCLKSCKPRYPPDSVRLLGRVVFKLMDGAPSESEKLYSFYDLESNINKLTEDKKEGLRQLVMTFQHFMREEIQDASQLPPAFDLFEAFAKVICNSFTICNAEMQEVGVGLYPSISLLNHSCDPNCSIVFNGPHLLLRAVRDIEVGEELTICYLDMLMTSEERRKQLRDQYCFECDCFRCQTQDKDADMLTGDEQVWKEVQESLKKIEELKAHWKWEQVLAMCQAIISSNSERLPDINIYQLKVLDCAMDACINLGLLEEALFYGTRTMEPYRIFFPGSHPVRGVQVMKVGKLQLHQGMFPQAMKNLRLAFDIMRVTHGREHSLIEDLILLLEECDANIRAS

| Structure (SMILES) | IC50 [1] | IC50 ([1]; Table 2A) | IC50 ([2]; Table 2A) | IC50 [1, 3] | IC50 [2, 3] |
| --- | --- | --- | --- | --- | --- |
| O=C(N[C@@H]1C[C@H]2CC[C@@H](C1)N2S(=O)(=O)CCCN1CCOCC1)c1cc(C2CC2)on1 [compound 495, 5-cyclopropyl-N-((1R,3s,5S)-8-((3-morpholinopropyl)sulfonyl)-8-azabicyclo[3.2.1]octan-3-yl)isoxazole-3-carboxamide] |  |  |  | > 10000 nM | > 10000 nM |
| O=C(N[C@H]1C[C@H]2CC[C@@H](C1)N2S(=O)(=O)CCCN1CCOCC1)c1cc(C2CC2)on1 [compound 496, 5-cyclopropyl-N-((1R,3r,5S)-8-((3-morpholinopropyl)sulfonyl)-8-azabicyclo[3.2.1]octan-3-yl)isoxazole-3-carboxamide] |  |  |  | 162 nM | 854 nM |
| O=C(N[C@H]1CCN(S(=O)(=O)CCCN2CCOCC2)[C@@H](Cc2ccccc2)C1)c1cc(C2CC2)on1 [compound 497, N-((2S,4S)-2-benzyl-1-((3-morpholinopropyl)sulfonyl)piperidin-4-yl)-5-cyclopropylisoxazole-3-carboxamide] |  |  |  | > 10000 nM | > 10000 nM |
| O=C(N[C@H]1CCN(S(=O)(=O)CCCN2CCOCC2)[C@H](Cc2ccccc2)C1)c1cc(C2CC2)on1 [compound 498, N-((2R,4S)-2-benzyl-1-((3-morpholinopropyl)sulfonyl)piperidin-4-yl)-5-cyclopropylisoxazole-3-carboxamide] |  |  |  | 9960 nM | > 10000 nM |
| O=C(N[C@H]1CCN(S(=O)(=O)CCN2CCOCC2)[C@H](Cc2ccccc2)C1)c1cc(C2CC2)on1 [compound 499, N-((2R,4S)-2-benzyl-1-((2-morpholinoethyl)sulfonyl)piperidin-4-yl)-5-cyclopropylisoxazole-3-carboxamide] |  |  |  | > 10000 nM | > 10000 nM |
| CC(C)[C@@H]1C[C@H](NC(=O)c2cc(C3CC3)on2)CCN1S(=O)(=O)CCCN [compound 502, N-((2S,4R)-1-((3-aminopropyl)sulfonyl)-2-isopropylpiperidin-4-yl)-5-cyclopropylisoxazole-3-carboxamide] |  |  |  | 766 nM | > 10000 nM |
| CC(C)[C@H]1C[C@H](NC(=O)c2cc(C3CC3)on2)CCN1S(=O)(=O)CCCN [compound 503, N-((2R,4R)-1-((3-aminopropyl)sulfonyl)-2-isopropylpiperidin-4-yl)-5-cyclopropylisoxazole-3-carboxamide] |  |  |  | 1060 nM | > 10000 nM |
| COCCN(C)c1ccc(S(=O)(=O)N2CC[C@H](NC(=O)c3cc(C4CC4)on3)C[C@H]2C)cn1 [compound 504, 5-cyclopropyl-N-((2R,4S)-1-((6-((2-methoxyethyl)(methyl)amino)pyridin-3-yl)sulfonyl)-2-methylpiperidin-4-yl)isoxazole-3-carboxamide] |  |  |  | > 10000 nM | > 10000 nM |
| COCCNc1ccc(S(=O)(=O)N2CC[C@@H](NC(=O)c3cc(C4CC4)on3)C[C@@H]2C)cn1 [compound 505, 5-cyclopropyl-N-((2S,4R)-1-((6-((2-methoxyethyl)amino)pyridin-3-yl)sulfonyl)-2-methylpiperidin-4-yl)isoxazole-3-carboxamide] | > 10000 nM |  |  |  | > 10000 nM |
| C[C@@H]1C[C@@H](NC(=O)c2cc(C3CC3)on2)CCN1S(=O)(=O)c1ccc(NCCN2CCOCC2)nc1 [compound 506, 5-cyclopropyl-N-((2R,4S)-2-methyl-1-((6-((2-morpholinoethyl)amino)pyridin-3-yl)sulfonyl)piperidin-4-yl)isoxazole-3-carboxamide] |  |  |  | 3970 nM | > 10000 nM |
| C[C@H]1C[C@H](NC(=O)c2cc(C3CC3)on2)CCN1S(=O)(=O)c1ccc(NCCN2CCOCC2)nc1 [compound 507, 5-cyclopropyl-N-((2S,4R)-2-methyl-1-((6-((2-morpholinoethyl)amino)pyridin-3-yl)sulfonyl)piperidin-4-yl)isoxazole-3-carboxamide] |  |  |  | 5540 nM | > 10000 nM |
| O=C(N[C@H]1C[C@H]2CC[C@@H](C1)N2S(=O)(=O)CC1CCNCC1)c1cc(C2CC2)on1 [compound 526, 5-cyclopropyl-N-((1R,3r,5S)-8-((piperidin-4-ylmethyl)sulfonyl)-8-azabicyclo[3.2.1]octan-3-yl)isoxazole-3-carboxamide] |  |  |  | 1 nM | 15 nM |
| O=C(N[C@H]1C[C@H]2CC[C@@H](C1)N2S(=O)(=O)N1CCNCC1)c1cc(C2CC2)on1 [compound 527, 5-cyclopropyl-N-((1R,3r,5S)-8-(piperazin-1-ylsulfonyl)-8-azabicyclo[3.2.1]octan-3-yl)isoxazole-3-carboxamide] |  |  |  | 3 nM | 32 nM |
| O=C(N[C@H]1C[C@H]2CC[C@@H](C1)N2S(=O)(=O)CC1CCN(CCO)CC1)c1cc(C2CC2)on1 [compound 531, 5-cyclopropyl-N-((1R,3r,5S)-8-(((1-(2-hydroxyethyl)piperidin-4-yl)methyl)sulfonyl)-8-azabicyclo[3.2.1]octan-3-yl)isoxazole-3-carboxamide] |  | 0.9 nM | 33.1 nM |  |  |
| O=C(N[C@H]1C[C@H]2CC[C@@H](C1)N2S(=O)(=O)CC1CCN(CCCO)CC1)c1cc(C2CC2)on1 [compound 534, 5-cyclopropyl-N-((1R,3r,5S)-8-(((1-(3-hydroxypropyl)piperidin-4-yl)methyl)sulfonyl)-8-azabicyclo[3.2.1]octan-3-yl)isoxazole-3-carboxamide] |  | 1.1 nM | 27.7 nM |  |  |
| O=C(N[C@H]1C[C@H]2CC[C@@H](C1)N2S(=O)(=O)CC1CCN(Cc2ccccc2)CC1)c1cc(C2CC2)on1 [compound 536, N-((1R,3r,5S)-8-(((1-benzylpiperidin-4-yl)methyl)sulfonyl)-8-azabicyclo[3.2.1]octan-3-yl)-5-cyclopropylisoxazole-3-carboxamide] |  | 1.2 nM | 58 nM |  |  |
| COCCCN1CCC(CS(=O)(=O)N2[C@@H]3CC[C@H]2C[C@@H](NC(=O)c2cc(C4CC4)on2)C3)CC1 [compound 542, 5-cyclopropyl-N-((1R,3r,5S)-8-(((1-(3-methoxypropyl)piperidin-4-yl)methyl)sulfonyl)-8-azabicyclo[3.2.1]octan-3-yl)isoxazole-3-carboxamide] |  | 1.6 nM | 49.6 nM |  |  |
| O=C(N[C@H]1C[C@H]2CC[C@@H](C1)N2S(=O)(=O)CC1CCCNC1)c1cc(C2CC2)on1 (stereo partly drawn) [compound 547, 5-cyclopropyl-N-((1R,3r,5S)-8-((piperidin-3-ylmethyl)sulfonyl)-8-azabicyclo[3.2.1]octan-3-yl)isoxazole-3-carboxamide] |  | 2.3 nM | 70.4 nM |  |  |

Further lines, with some results ahead:

| IC50 [1] | IC50 ([1]; Table 2A) | IC50 ([2]; Table 2A) | Structure (SMILES) | IC50 [1, 3] | IC50 [2, 3] |
| --- | --- | --- | --- | --- | --- |
|  | 0.9 nM | 23.9 nM | C[C@H]1C[C@@H](NC(=O)c2cc(C3CC3)on2)CCN1S(=O)(=O)CC1CCN(CCc2ccccc2)CC1 [compound 530, 5-cyclopropyl-N-((2S,4S)-2-methyl-1-(((1-phenethylpiperidin-4-yl)methyl)sulfonyl)piperidin-4-yl)isoxazole-3-carboxamide] |  |  |
|  | 1 nM | 30.8 nM | C[C@H]1C[C@@H](NC(=O)c2cc(C3CC3)on2)CCN1S(=O)(=O)CC1CCN(C)CC1 [compound 533, 5-cyclopropyl-N-((2S,4S)-2-methyl-1-(((1-methylpiperidin-4-yl)methyl)sulfonyl)piperidin-4-yl)isoxazole-3-carboxamide] |  |  |
|  | 1.2 nM | 21.2 nM | CNC1CCN(S(=O)(=O)N2CC[C@H](NC(=O)c3cc(C4CC4)on3)C[C@@H]2C)CC1 [compound 535, 5-cyclopropyl-N-((2S,4S)-2-methyl-1-((4-(methylamino)piperidin-1-yl)sulfonyl)piperidin-4-yl)isoxazole-3-carboxamide] |  |  |
|  | 1.3 nM | 72.5 nM | C[C@@H]1C[C@H](NC(=O)c2cc(C3CC3)on2)CCN1S(=O)(=O)CC1CCN(CCc2ccccc2)CC1 [compound 537, 5-cyclopropyl-N-((2R,4R)-2-methyl-1-(((1-phenethylpiperidin-4-yl)methyl)sulfonyl)piperidin-4-yl)isoxazole-3-carboxamide] |  |  |
|  | 1.3 nM | 29.4 nM | C[C@H]1C[C@@H](NC(=O)c2cc(C3CC3)on2)CCN1S(=O)(=O)CC1CCN(CCO)CC1 [compound 538, 5-cyclopropyl-N-((2S,4S)-1-(((1-(2-hydroxyethyl)piperidin-4-yl)methyl)sulfonyl)-2-methylpiperidin-4-yl)isoxazole-3-carboxamide] |  |  |
|  | 1.9 nM | 44.7 nM | C[C@H]1C[C@@H](NC(=O)c2cc(C3CC3)on2)CCN1S(=O)(=O)CC1CCN(Cc2ccccc2)CC1 [compound 544, N-((2S,4S)-1-(((1-benzylpiperidin-4-yl)methyl)sulfonyl)-2-methylpiperidin-4-yl)-5-cyclopropylisoxazole-3-carboxamide] |  |  |
|  | 2 nM | 39.9 nM | C[C@H]1C[C@@H](NC(=O)c2cc(C3CC3)on2)CCN1S(=O)(=O)N1CCC(N(C)C)CC1 [compound 545, 5-cyclopropyl-N-((2S,4S)-1-((4-(dimethylamino)piperidin-1-yl)sulfonyl)-2-methylpiperidin-4-yl)isoxazole-3-carboxamide] |  |  |
|  | 2.1 nM | 36 nM | C[C@H]1C[C@@H](NC(=O)c2cc(C3CC3)on2)CCN1S(=O)(=O)N1CCC(NCc2ccccc2)CC1 [compound 546, N-((2S,4S)-1-((4-(benzylamino)piperidin-1-yl)sulfonyl)-2-methylpiperidin-4-yl)-5-cyclopropylisoxazole-3-carboxamide] |  |  |
|  | 2.4 nM | 94.1 nM | C[C@H]1C[C@@H](NC(=O)c2cc(C3CC3)on2)CCN1S(=O)(=O)CCCCN [compound 548, N-((2S,4S)-1-((4-aminobutyl)sulfonyl)-2-methylpiperidin-4-yl)-5-cyclopropylisoxazole-3-carboxamide] |  |  |

From patent US10577363B2, “Substituted piperidine compounds” (EPIZYME, INC., priority 2014, dated 2020)
